The source made the active and inactive calls. No cut-off for these calls is given here.
Experiments:
[1] = Effect on cleaved PARP level in human NCI-H510 cells assessed as fold change at 10 nM measured after 14 days by Western blot analysis (reference value: 1.00); type: functional, NCI-H510A; conditions: time 14 day
SHP77 = experiment: Effect on NSE gene expression in human SHP77 cells at 1 uM measured after 4 to 7 days by qRT-PCR analysis; type: functional, cell-based; conditions: time 4-7 day
[2] = Effect on cleaved PARP level in human NCI-H1417 cells assessed as relative expression at 100 nM measured after 14 days by Western blot analysis (reference value: 0.38); type: functional; conditions: time 14 day
[3] = Effect on cleaved PARP level in human NCI-H1417 cells assessed as relative expression at 10 nM measured after 14 days by Western blot analysis (reference value: 0.38); type: functional; conditions: time 14 day
NCI-H526 [4] = experiment: In vivo inhibition of LSD1 in human NCI-H526 cells xenografted in nude mouse assessed as change in UMODL1 gene expression measured after 24 hrs post single administration by qRT-PCR analysis; type: functional, organism-based; conditions: dose 0.06-135 mg/kg
NCI-H1417 [5] = experiment: Antitumor activity against human NCI-H1417 cells xenografted in nude mouse assessed as tumor growth inhibition at 1.5 mg/kg, po administered daily measured twice weekly relative to control; type: functional; conditions: read-out: TGI
[6] = target: Amine oxidase [flavin-containing] B (Homo sapiens, UniProt P27338); experiment: Inhibition of MAO-B (unknown origin)
[7] = Toxicity in dog assessed as effect on hemodynamics measured for 28 days; parameters: species or system Canis lupus familiaris; conditions: in vivo, 672 h, time 28 day
[8] = Effect on cleaved PARP level in human NCI-H69 cells assessed as fold change at 100 nM measured after 7 days by Western blot analysis (reference value: 1.00); type: functional; conditions: time 7 day
[9] = Effect on cleaved PARP level in human NCI-H2171 cells assessed as fold change at 1000 nM measured after 14 days by Western blot analysis (reference value: 1.00); type: functional; conditions: time 14 day
[10] = Effect on cleaved PARP level in human NCI-H2171 cells assessed as fold change at 10 nM measured after 10 days by Western blot analysis (reference value: 1.00); type: functional; conditions: time 10 day
[11] = Effect on cleaved PARP level in human NCI-H510 cells assessed as relative expression at 100 nM measured after 7 days by Western blot analysis (reference value: 0.24); type: functional, NCI-H510A; conditions: time 7 day
[12] = Effect on cleaved PARP level in human NCI-H1417 cells assessed as relative expression at 1000 nM measured after 7 days by Western blot analysis (reference value: 0.10); type: functional; conditions: time 7 day
[13] = Effect on cleaved PARP level in human NCI-H2171 cells assessed as relative expression at 100 nM measured after 14 days by Western blot analysis (reference value: 0.01); type: functional; conditions: time 14 day
[14] = Effect on cleaved PARP level in human NCI-H69 cells assessed as fold change at 1000 nM measured after 14 days by Western blot analysis (reference value: 1.00); type: functional; conditions: time 14 day
[15] = Effect on cleaved PARP level in human NCI-H69 cells assessed as fold change at 10 nM measured after 7 days by Western blot analysis (reference value: 1.00); type: functional; conditions: time 7 day
[16] = Effect on cleaved PARP level in human COLO-668 cells assessed as relative expression at 1000 nM measured after 14 days by Western blot analysis (reference value: 3.50); type: functional; conditions: time 14 day
[17] = Effect on cleaved PARP level in human NCI-H69 cells assessed as relative expression at 100 nM measured after 10 days by Western blot analysis (reference value: 0.03); type: functional; conditions: time 10 day
[18] = Effect on cleaved PARP level in human NCI-H146 cells assessed as fold change at 100 nM measured after 14 days by Western blot analysis (reference value: 1.00); type: functional; conditions: time 14 day
[19] = Effect on cleaved PARP level in human NCI-H1417 cells assessed as fold change at 100 nM measured after 10 days by Western blot analysis (reference value: 1.00); type: functional; conditions: time 10 day
[20] = Effect on cleaved PARP level in human NCI-H526 cells assessed as relative expression at 100 nM measured after 7 days by Western blot analysis (reference value: 0.57); type: functional; conditions: time 7 day
[21] = target: Lysine-specific histone demethylase 1A (Homo sapiens, UniProt O60341)
Description: Binding affinity to LSD1 (unknown origin) using H3K4me2 as substrate assessed as inactivation constant by HRP-coupled amplex red assay

[22] = Effect on cleaved PARP level in human NCI-H526 cells assessed as fold change at 1000 nM measured after 14 days by Western blot analysis (reference value: 1.00); type: functional; conditions: time 14 day
[23] = Half life in mouse tumor at 5 mg/kg, po by HPLC/MS/MS analysis; type: ADME, organism-based, Neoplasm
[24] = Effect on cleaved PARP level in human NCI-H510 cells assessed as fold change at 1000 nM measured after 7 days by Western blot analysis (reference value: 1.00); type: functional, NCI-H510A; conditions: time 7 day
[25] = Effect on cleaved PARP level in human COLO-668 cells assessed as fold change at 1000 nM measured after 14 days by Western blot analysis (reference value: 1.00); type: functional; conditions: time 14 day
[26] = Effect on cleaved PARP level in human NCI-H146 cells assessed as fold change at 1000 nM measured after 7 days by Western blot analysis (reference value: 1.00); type: functional; conditions: time 7 day
[27] = Effect on cleaved PARP level in human NCI-H69 cells assessed as relative expression at 100 nM measured after 7 days by Western blot analysis (reference value: 0.02); type: functional; conditions: time 7 day
[28] = Dose normalized AUC (0 to last) in mouse tumor at 5 mg/kg, po by HPLC/MS/MS analysis; type: ADME, organism-based, Neoplasm; conditions: in vivo
NCI-H1417 [29] = experiment: Effect on caspase-3 level in human NCI-H1417 cells upto 1000 nM measured after 10 days by Western blot analysis; type: functional, cell-based; conditions: time 10.0 day
[30] = Effect on cleaved PARP level in human COLO-668 cells assessed as relative expression at 1000 nM measured after 10 days by Western blot analysis (reference value: 1.07); type: functional; conditions: time 10 day
NCI-H2171 = experiment: Antitumor activity against human NCI-H2171 cells xenografted in nude mouse assessed as mean tumor volume at […] mg/kg, po administered daily measured twice weekly (reference value: 1553 +/- 339 mm3); type: functional; conditions: 1.25 mg/kg
[31] = Toxicity in rat assessed as suppression of erythroid maturation in bone marrow measured for 28 days; conditions: in vivo, 672 h, time 28 day
NCI-H526 [32] = experiment: In vivo inhibition of LSD1 in human NCI-H526 cells xenografted in nude mouse assessed as change in LIX1L gene expression administrated daily for 5 days by qRT-PCR analysis; type: functional, organism-based; conditions: dose 0.02-135 mg/kg, time 5.0 day
[33] = Effect on cleaved PARP level in human NCI-H146 cells assessed as relative expression at 10 nM measured after 14 days by Western blot analysis (reference value: 2.42); type: functional; conditions: time 14 day
[34] = Inhibition of GABA-A receptor (unknown origin); parameters: species or system Homo sapiens
[35] = Dose normalized AUC (0 to infinity) in mouse at 5.5 mg/kg, ip by HPLC/MS/MS analysis; type: ADME, organism-based; conditions: in vivo

Amine oxidase [flavin-containing] B, sequence (P27338 whole entry): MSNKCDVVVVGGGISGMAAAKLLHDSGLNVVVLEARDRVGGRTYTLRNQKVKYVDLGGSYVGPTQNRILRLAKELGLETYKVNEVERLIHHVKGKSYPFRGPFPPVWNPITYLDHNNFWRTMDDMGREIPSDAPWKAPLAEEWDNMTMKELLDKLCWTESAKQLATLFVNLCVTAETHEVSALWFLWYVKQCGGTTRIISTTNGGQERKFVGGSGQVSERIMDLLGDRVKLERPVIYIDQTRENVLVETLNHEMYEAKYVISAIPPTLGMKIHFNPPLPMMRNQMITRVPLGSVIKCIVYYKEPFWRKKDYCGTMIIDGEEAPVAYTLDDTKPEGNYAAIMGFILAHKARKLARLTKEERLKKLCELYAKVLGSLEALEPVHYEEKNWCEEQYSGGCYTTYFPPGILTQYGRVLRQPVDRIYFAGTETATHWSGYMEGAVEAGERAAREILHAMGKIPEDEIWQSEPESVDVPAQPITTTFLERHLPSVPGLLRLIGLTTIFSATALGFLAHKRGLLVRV

In the case of O=C(O)c1ccc(CN2CCC(CN[C@@H]3C[C@H]3c3ccccc3)CC2)cc1 [GSK2879552], the “fold change (FC)” value [1] is reported as 1.79, the Activity (SHP77) is reported as “inactive” and the Activity [2] is reported as 0.32. The Activity [3] was 0.31, the inhibition (NCI-H526 [4]) was “Dose-Dependent Effect” and the inhibition in vivo at 1.5 mg/kg (NCI-H1417 [5]) was 83%. For the same compound, the IC50 [6] was 20 µM, the Activity [7] was “Toxic” and the “fold change (FC)” value [8] was 1.32. For the same compound, the “fold change (FC)” value [9] was 2.4, the “fold change (FC)” value [10] was 1.33 and the Activity [11] was 0.43. For the same compound, the Activity [12] was 0.36, the Activity [13] was 0.02 and the “fold change (FC)” value [14] was 5.16. The “fold change (FC)” value [15] was 1.26, the Activity [16] was 1.02 and the Activity [17] was 0.06. The “fold change (FC)” value [18] was 0.45, the “fold change (FC)” value [19] was 2.14 and the Activity [20] was 0.68. For the same compound, the Kinact [21] was 0.11 min⁻¹, the “fold change (FC)” value [22] was 1.37 and the half-life [23] was 8.4 h. The “fold change (FC)” value [24] was 2.06, the “fold change (FC)” value [25] was 0.29 and the “fold change (FC)” value [26] was 1.12. For the same compound, the Activity [27] was 0.03, the AUClast/dose [28] was 464 ng·h/mL/mg/kg and the Activity (NCI-H1417 [29]) was “inactive”. For the same compound, the Activity [30] was 0.63, the Activity (NCI-H2171) was 1055 mm3 and the Activity [31] was “Toxic”. For the same compound, the inhibition (NCI-H526 [32]) was “Dose-Dependent Effect” and the Activity [33] was 1.54.

For c1ccc([C@@H]2C[C@H]2NC2CCNCC2)cc1, the IC50 [34] was greater than 100 µM and the AUC/dose [35] was 172 kg·ng·h/mL/mg.

Reference: ChEMBL document CHEMBL5705903, “A DNA Hypomethylation Signature Predicts Antitumor Activity of LSD1 Inhibitors in SCLC” (Cancer Cell, 2015)
